Data: patent US9271978B2 (Zenith Epigenetics Corp., priority 2012, dated 2016)

Experiments:
[1] = target: T1, second bromodomain of Brd2 (BRD2(2)) (Homo sapiens, UniProt P25440); assay: Inhibition of tetra-acetylated histone H4 binding to Brd2 bromodomain 2 (TR-FRET); design: key: Active: Compounds with an IC50 value less than 30 μM were deemed to be active.; Not Active: Compounds with an IC50 value less than 30 μM were deemed to be active; details: tetra-acetylated histone H4 peptide, active = IC50 <30 μM
T1 construct: made in house; host or cells: E. coli BL21 (DE3)
Method in brief: (§1)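 IC50 values come from dose-response curves of the 665 nm to 620 nm TR-FRET signal decrease, measured after 2 h at room temperature. Reactions contained 200 nM E. coli-expressed His-tagged bromodomain, 25-50 nM biotinylated tetra-acetylated H4 peptide, Eu-streptavidin plus XL665 anti-His antibody, with 30 mM HEPES pH 7.4, 320 mM KF and 0.2% DMSO.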

c-myc = assay: Inhibition of c-myc expression in MV4-11 cells (mRNA, real-time PCR); assay type: cell-based; design: key: Active: Compounds with an IC50 value less than 30 μM were deemed to be active.; Not Active: Compounds with an IC50 value less than 30 μM were deemed to be active; details: Human AML MV4-11 cells, 3 h incubation
Method in brief: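 Duplex RT-qPCR of c-myc against cyclophilin cDNA gave IC50 from a dose–response curve. Input was isolated mRNA from 2.5×10^4 MV4-11 cells after 3 h exposure at 37 °C to compound or 0.1% DMSO vehicle.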

[2] = target: T2, Brd4 bromodomain 1 (BRD4(1)) (Homo sapiens, UniProt O60885); assay: Inhibition of tetra-acetylated histone H4 binding to Brd4 bromodomain 1 (TR-FRET); design: key: Active: Compounds with an IC50 value less than 30 μM were deemed to be active.; Not Active: Compounds with an IC50 value less than 30 μM were deemed to be active; details: tetra-acetylated histone H4 peptide, active = IC50 <30 μM
T2 construct: Illustrative results with the first bromodomain of Brd4; made in house; host or cells: E. coli BL21 (DE3)
Method in brief: as §1

hIL-6 mRNA = assay: Inhibition of hIL-6 mRNA transcription in U937 cells; assay type: cell-based, human; design: key: Active: Compounds with an IC50 value less than 30 μM were deemed to be active.; Not Active: Compounds with an IC50 value less than 30 μM were deemed to be active; details: LPS stimulation, active = IC50 <30 μM
Method in brief: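 Readout is one-step real-time PCR of hIL-6 mRNA, normalized to an internal control and given as fold induction versus control. Cells: PMA (60 ng/mL, 3 days)-differentiated U937 macrophages, compound added 1 h before 1 ug/mL LPS, harvested after 3 h at 37° C.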

ApoA-I mRNA = assay: Up-regulation of hApoA-1 mRNA transcription in Huh7 cells; assay type: cell-based, human; design: key: Active: Compounds with an EC170 value less than 30 μM were deemed to be active; details: 48 h treatment, ApoA-I mRNA by real-time PCR, Active = EC170 less than 30 μM
Method in brief: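 Huh7 cells treated with compound for 48 h. ApoA-I mRNA was then quantified in captured mRNA by one-step real-time RT-PCR. Fold induction calculated from Ct values relative to the matching DMSO control; EC170 is the concentration for 170% of control expression.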

[3] = tested on: human AML MV-4-11 (CRL-9591) cells; assay: Inhibition of cell proliferation in MV4-11 cells; assay type: cell-based; design: key: Active: Compounds with an IC50 value less than 30 μM were deemed to be active.; Not Active: Compounds with an IC50 value less than 30 μM were deemed to be active; details: human AML MV-4-11 cells, 72 h; active = IC50 <30 μM
Method in brief: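 IC50 values come from blank-corrected proliferation relative to DMSO controls, read as 490 nm absorbance 3–4 h after CellTiter Aqueous One addition. Before that, cells seeded at 5×10^4/well were exposed for 72 h (37° C, 5% CO2) to triplicate two-fold compound dilutions spanning 30–0.2 μM.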

T1 sequence (P25440 344-453 limits assumed): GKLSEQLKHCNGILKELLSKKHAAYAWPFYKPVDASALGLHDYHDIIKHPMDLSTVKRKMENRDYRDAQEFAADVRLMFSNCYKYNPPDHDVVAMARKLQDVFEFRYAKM

Structure (SMILES): Cc1noc(C)c1-c1ccc(=O)n(C(C)c2ccc(Cl)cc2)c1 (stereo not drawn) [Example 105, 1-(1-(4-Chlorophenyl)ethyl)-5-(3,5-dimethylisoxazol-4-yl)pyridin-2(1H)-one]
- FRET activity (IC50 <30 μM) BRD2(2) [1]: Active
- c-myc activity (IC50 <30 μM) (c-myc): Active
- FRET activity (IC50 <30 μM) BRD4(1) [2]: Active
- IL-6 activity (IC50 <30 μM) (hIL-6 mRNA): Active
- ApoA-1 activity (EC170 <30 μM) (ApoA-I mRNA): Active
- Cell Proliferation activity (IC50 <30 μM) [3]: Active

Structure (SMILES): COc1cc(-c2ccc(=O)n(Cc3ccccc3)n2)ccc1O [Example 83, 2-Benzyl-6-(4-hydroxy-3-methoxyphenyl)pyridazin-3(2H)-one]
- FRET activity (IC50 <30 μM) BRD2(2) [1]: Active
- c-myc activity (IC50 <30 μM) (c-myc): Not Active
- FRET activity (IC50 <30 μM) BRD4(1) [2]: Active
- IL-6 activity (IC50 <30 μM) (hIL-6 mRNA): Active
- ApoA-1 activity (EC170 <30 μM) (ApoA-I mRNA): Active
- Cell Proliferation activity (IC50 <30 μM) [3]: Active

Structure (SMILES): COc1cc(-c2ccc(=O)n(Cc3ccc(NC(C)=O)cc3)n2)cc(OC)c1OC [Example 82, N-(4-((6-Oxo-3-(3,4,5-trimethoxyphenyl)pyridazin-1(6H)-yl)methyl)phenyl)acetamide]
- FRET activity (IC50 <30 μM) BRD2(2) [1]: Active
- c-myc activity (IC50 <30 μM) (c-myc): Not Active
- FRET activity (IC50 <30 μM) BRD4(1) [2]: Active
- IL-6 activity (IC50 <30 μM) (hIL-6 mRNA): Active
- ApoA-1 activity (EC170 <30 μM) (ApoA-I mRNA): Active
- Cell Proliferation activity (IC50 <30 μM) [3]: Not Active

Structure (SMILES): COc1ccc(Cn2nc(-c3cc(OC)c(OC)c(OC)c3)ccc2=O)cc1 [Example 117, 2-(4-Methoxybenzyl)-6-(3,4,5-trimethoxyphenyl)pyridazin-3(2H)-one]
- FRET activity (IC50 <30 μM) BRD2(2) [1]: Active
- c-myc activity (IC50 <30 μM) (c-myc): Not Active
- FRET activity (IC50 <30 μM) BRD4(1) [2]: Active
- IL-6 activity (IC50 <30 μM) (hIL-6 mRNA): Active
- ApoA-1 activity (EC170 <30 μM) (ApoA-I mRNA): Active
- Cell Proliferation activity (IC50 <30 μM) [3]: Not Active

Structure (SMILES): Cc1noc(C)c1-c1ccc(=O)n(Cc2ccc(F)c(Cl)c2)c1 [Example 147, 1-(3-Chloro-4-fluorobenzyl)-5-(3,5-dimethylisoxazol-4-yl)pyridin-2(1H)-one]
- FRET activity (IC50 <30 μM) BRD2(2) [1]: Active
- c-myc activity (IC50 <30 μM) (c-myc): Active
- FRET activity (IC50 <30 μM) BRD4(1) [2]: Active
- IL-6 activity (IC50 <30 μM) (hIL-6 mRNA): Active
- ApoA-1 activity (EC170 <30 μM) (ApoA-I mRNA): Active
- Cell Proliferation activity (IC50 <30 μM) [3]: Active

Structure (SMILES): Cc1noc(C)c1-c1ccc(=O)n(Cc2ccc3[nH]ncc3c2)c1 [Example 148, 1-((1H-Indazol-5-yl)methyl)-5-(3,5-dimethylisoxazol-4-yl)pyridin-2(1H)-one]
- FRET activity (IC50 <30 μM) BRD2(2) [1]: Active
- c-myc activity (IC50 <30 μM) (c-myc): Active
- FRET activity (IC50 <30 μM) BRD4(1) [2]: Active
- IL-6 activity (IC50 <30 μM) (hIL-6 mRNA): Active
- ApoA-1 activity (EC170 <30 μM) (ApoA-I mRNA): Active
- Cell Proliferation activity (IC50 <30 μM) [3]: Active

Structure (SMILES): COc1cc(Nc2ccc(=O)n(Cc3ccccc3)n2)cc(OC)c1OC [Example 54, 2-Benzyl-6-((3,4,5-trimethoxyphenyl)amino)pyridazin-3(2H)-one]
- FRET activity (IC50 <30 μM) BRD2(2) [1]: Active
- c-myc activity (IC50 <30 μM) (c-myc): Active
- FRET activity (IC50 <30 μM) BRD4(1) [2]: Active
- IL-6 activity (IC50 <30 μM) (hIL-6 mRNA): Active
- ApoA-1 activity (EC170 <30 μM) (ApoA-I mRNA): Active
- Cell Proliferation activity (IC50 <30 μM) [3]: Active

Structure (SMILES): Cc1noc(C)c1-c1ccc(=O)n(Cc2cccc3cccnc23)c1 [Example 47, 5-(3,5-Dimethylisoxazol-4-yl)-1-(quinolin-8-ylmethyl)pyridin-2(1H)-one]
- FRET activity (IC50 <30 μM) BRD2(2) [1]: Active
- c-myc activity (IC50 <30 μM) (c-myc): Active
- FRET activity (IC50 <30 μM) BRD4(1) [2]: Active
- IL-6 activity (IC50 <30 μM) (hIL-6 mRNA): Active
- ApoA-1 activity (EC170 <30 μM) (ApoA-I mRNA): Active
- Cell Proliferation activity (IC50 <30 μM) [3]: Active

Structure (SMILES): Cc1noc(C)c1-c1ccc(=O)n(Cc2cccc(C(F)F)c2)c1 [Example 50, 1-(3-(Difluoromethyl)benzyl)-5-(3,5-dimethylisoxazol-4-yl)pyridin-2(1H)-one]
- FRET activity (IC50 <30 μM) BRD2(2) [1]: Active
- c-myc activity (IC50 <30 μM) (c-myc): Active
- FRET activity (IC50 <30 μM) BRD4(1) [2]: Active
- IL-6 activity (IC50 <30 μM) (hIL-6 mRNA): Active
- ApoA-1 activity (EC170 <30 μM) (ApoA-I mRNA): Active
- Cell Proliferation activity (IC50 <30 μM) [3]: Active

Structure (SMILES): COc1cccc(Cn2nc(-c3cc(OC)c(OC)c(OC)c3)ccc2=O)c1 [Example 119, 2-(3-Methoxybenzyl)-6-(3,4,5-trimethoxyphenyl)pyridazin-3(2H)-one]
- FRET activity (IC50 <30 μM) BRD2(2) [1]: Active
- c-myc activity (IC50 <30 μM) (c-myc): Not Active
- FRET activity (IC50 <30 μM) BRD4(1) [2]: Active
- IL-6 activity (IC50 <30 μM) (hIL-6 mRNA): Active
- ApoA-1 activity (EC170 <30 μM) (ApoA-I mRNA): Active
- Cell Proliferation activity (IC50 <30 μM) [3]: Active

Structure (SMILES): COc1cc(-c2ccc(=O)n(Cc3ccccc3C#N)c2)cc(OC)c1OC [Example 53, 2-((2-Oxo-5-(3,4,5-trimethoxyphenyl)pyridin-1(2H)-yl)methyl)benzonitrile]
- FRET activity (IC50 <30 μM) BRD2(2) [1]: Active
- c-myc activity (IC50 <30 μM) (c-myc): Not Active
- FRET activity (IC50 <30 μM) BRD4(1) [2]: Active
- IL-6 activity (IC50 <30 μM) (hIL-6 mRNA): Active
- ApoA-1 activity (EC170 <30 μM) (ApoA-I mRNA): Active
- Cell Proliferation activity (IC50 <30 μM) [3]: Active

Structure (SMILES): COc1ccc(Nc2ccc(=O)n(Cc3ccccc3)n2)nc1OC [Example 99, 2-Benzyl-6-((5,6-dimethoxypyridin-2-yl)amino)pyridazin-3(2H)-one]
- FRET activity (IC50 <30 μM) BRD2(2) [1]: Active
- c-myc activity (IC50 <30 μM) (c-myc): Active
- FRET activity (IC50 <30 μM) BRD4(1) [2]: Active
- IL-6 activity (IC50 <30 μM) (hIL-6 mRNA): Active
- ApoA-1 activity (EC170 <30 μM) (ApoA-I mRNA): Active
- Cell Proliferation activity (IC50 <30 μM) [3]: Not Active

Structure (SMILES): COc1cc(-c2ccc(=O)n(Cc3ccccc3C#N)n2)cc(OC)c1OC [Example 118, 2-((6-Oxo-3-(3,4,5-trimethoxyphenyl)pyridazin-1(6H)-yl)methyl)benzonitrile]
- FRET activity (IC50 <30 μM) BRD2(2) [1]: Active
- c-myc activity (IC50 <30 μM) (c-myc): Not Active
- FRET activity (IC50 <30 μM) BRD4(1) [2]: Active
- IL-6 activity (IC50 <30 μM) (hIL-6 mRNA): Active
- ApoA-1 activity (EC170 <30 μM) (ApoA-I mRNA): Active
- Cell Proliferation activity (IC50 <30 μM) [3]: Active

Structure (SMILES): COc1cc(-c2ccc(=O)n(Cc3ccccc3)c2)cc(OC)c1OC [Example 52, 1-Benzyl-5-(3,4,5-trimethoxyphenyl)pyridin-2(1H)-one]
- FRET activity (IC50 <30 μM) BRD2(2) [1]: Active
- c-myc activity (IC50 <30 μM) (c-myc): Not Active
- FRET activity (IC50 <30 μM) BRD4(1) [2]: Active
- IL-6 activity (IC50 <30 μM) (hIL-6 mRNA): Active
- ApoA-1 activity (EC170 <30 μM) (ApoA-I mRNA): Active
- Cell Proliferation activity (IC50 <30 μM) [3]: Not Active

Structure (SMILES): Cc1noc(C)c1-c1ccc(=O)n(CCOc2ccccc2)c1 [Example 51, 5-(3,5-Dimethylisoxazol-4-yl)-1-(2-phenoxyethyl)pyridin-2(1H)-one]
- FRET activity (IC50 <30 μM) BRD2(2) [1]: Active
- c-myc activity (IC50 <30 μM) (c-myc): Not Active
- FRET activity (IC50 <30 μM) BRD4(1) [2]: Active
- IL-6 activity (IC50 <30 μM) (hIL-6 mRNA): Active
- ApoA-1 activity (EC170 <30 μM) (ApoA-I mRNA): Active
- Cell Proliferation activity (IC50 <30 μM) [3]: Not Active

Structure (SMILES): Cc1noc(C)c1-c1ccc(=O)n([C@@H](C)c2ccccc2)n1 [Example 109, (S)-6-(3,5-Dimethylisoxazol-4-yl)-2-(1-phenylethyl)pyridazin-3(2H)-one]
- FRET activity (IC50 <30 μM) BRD2(2) [1]: Active
- c-myc activity (IC50 <30 μM) (c-myc): Active
- FRET activity (IC50 <30 μM) BRD4(1) [2]: Active
- IL-6 activity (IC50 <30 μM) (hIL-6 mRNA): Active
- ApoA-1 activity (EC170 <30 μM) (ApoA-I mRNA): Active
- Cell Proliferation activity (IC50 <30 μM) [3]: Active
